Source: the supplement of paper PMC10307832

Key:
Assay in all cases: relative viability (nuclei count vs DMSO), 5 days (fraction); higher = more cells survive
PAC-1 + Lapatinib = compound: C=CCc1cccc(/C=N/NC(=O)CN2CCN(Cc3ccccc3)CC2)c1O [PAC-1] + CS(=O)(=O)CCNCc1ccc(-c2ccc3ncnc(Nc4ccc(OCc5cccc(F)c5)c(Cl)c4)c3c2)o1 [Lapatinib] (partner 2 µM)
Outline: (§1)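 Five library-drug doses in √10 steps were combined with a fixed anchor-drug dose, or a single drug was given alone, by pin tool to lung cancer cell lines in 1536-well plates the day after seeding. Nuclei were stained and counted after 5 days. Relative viability is the nuclei count in treated wells over that in vehicle wells, taken as the median of duplicate plates.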

BMX-IN-1 + Crizotinib = compound: C=CC(=O)Nc1cc(-n2c(=O)ccc3cnc4ccc(-c5ccc(NS(C)(=O)=O)cc5)cc4c32)ccc1C [BMX-IN-1] + C[C@@H](Oc1cc(-c2cnn(C3CCNCC3)c2)cnc1N)c1c(Cl)ccc(F)c1Cl [Crizotinib] (partner 1 µM)
Outline: as §1

Ibrutinib + Phenformin = compound: C=CC(=O)N1CCC[C@@H](n2nc(-c3ccc(Oc4ccccc4)cc3)c3c(N)ncnc32)C1 [Ibrutinib] + N=C(N)NC(=N)NCCc1ccccc1 [Phenformin] (partner 250 µM)
Outline: as §1

BMX-IN-1 + Luminespib = compound: C=CC(=O)Nc1cc(-n2c(=O)ccc3cnc4ccc(-c5ccc(NS(C)(=O)=O)cc5)cc4c32)ccc1C [BMX-IN-1] + CCNC(=O)c1noc(-c2cc(C(C)C)c(O)cc2O)c1-c1ccc(CN2CCOCC2)cc1 [Luminespib] (partner 0.01 µM)
Outline: as §1

Cell Line	relative viability (PAC-1 + Lapatinib; first compound 0.02 µM)	relative viability (PAC-1 + Lapatinib; first compound 0.06325 µM)	relative viability (PAC-1 + Lapatinib; first compound 0.2 µM)	relative viability (PAC-1 + Lapatinib; first compound 2 µM)	relative viability (BMX-IN-1 + Crizotinib; first compound 0.02 µM)	relative viability (BMX-IN-1 + Crizotinib; first compound 0.2 µM)	relative viability (BMX-IN-1 + Crizotinib; first compound 2 µM)	relative viability (Ibrutinib + Phenformin; first compound 0.005 µM)	relative viability (Ibrutinib + Phenformin; first compound 0.01581 µM)	relative viability (Ibrutinib + Phenformin; first compound 0.05 µM)	relative viability (Ibrutinib + Phenformin; first compound 0.1581 µM)	relative viability (Ibrutinib + Phenformin; first compound 0.5 µM)	relative viability (BMX-IN-1 + Luminespib; first compound 0.02 µM)	relative viability (BMX-IN-1 + Luminespib; first compound 0.2 µM)	relative viability (BMX-IN-1 + Luminespib; first compound 0.6325 µM)	relative viability (BMX-IN-1 + Luminespib; first compound 2 µM)	relative viability (BMX-IN-1 + Crizotinib; first compound 0.6325 µM)
NCI-H1993	0.774	0.835	0.838	0.887	0.912	0.873	0.835	0.487	0.575	0.534	0.509	0.624	0.854	0.805	0.829	0.737	–
NCI-H2009	0.93	0.318	0.855	0.9	1.11	1.07	1.06	0.558	0.476	0.518	0.476	0.499	1.11	1.09	1.06	1.08	1.26
NCI-H2023	1.1	0.849	0.768	0.847	0.865	0.639	0.676	0.376	0.392	0.402	0.45	0.357	1.06	1.03	0.774	0.739	0.753
NCI-H2085	0.756	0.728	0.707	0.909	0.98	0.815	0.855	0.584	0.691	0.616	0.589	0.495	0.404	0.389	0.401	0.406	0.897
NCI-H2087	1.07	1.06	0.815	0.922	0.902	1.02	1.03	0.494	0.46	0.493	–	0.427	0.192	0.179	0.188	0.133	1.01
NCI-H2126	0.745	0.763	0.817	0.816	1.2	1.06	1.1	0.485	0.474	0.495	0.551	0.52	1	0.974	1.17	0.909	1.15
NCI-H2170	0.247	0.258	0.255	0.264	1.5	1.27	1.38	0.431	0.42	0.395	0.39	0.36	0.921	0.77	0.821	0.819	1.1
NCI-H2228	1.26	1.25	1.02	1.23	0.52	0.354	0.495	0.378	–	0.346	0.263	0.285	0.176	0.138	0.108	0.13	0.417
NCI-H2347	0.947	0.885	0.859	0.892	0.735	0.678	0.624	–	0.447	0.332	0.294	0.239	0.438	0.356	0.517	0.353	0.675
NCI-H2405	1.03	1.17	1.14	1.24	0.939	0.892	0.886	0.383	0.384	0.387	0.264	0.369	0.747	0.754	0.669	0.674	0.903
NCI-H3122	1.01	1.03	0.983	0.953	0.3	0.27	0.3	0.363	0.359	0.414	0.358	0.406	0.114	0.0826	0.103	0.0683	0.271
PC-3 [JPC-3]	0.416	0.474	0.447	0.465	1.34	1.03	0.99	0.47	0.452	0.467	0.473	0.391	0.82	0.757	0.709	0.68	1.03
PC-14	0.324	0.315	0.275	0.321	0.909	1.07	0.987	0.589	0.512	0.429	0.357	0.174	0.184	0.107	0.14	0.152	0.964
RERF-LC-KJ	0.857	0.817	0.864	0.87	0.813	1.09	0.807	0.394	0.389	0.379	0.407	0.356	1.3	1.55	1.27	1.49	0.865
SK-LU-1	0.601	0.942	0.67	0.867	1.02	0.906	0.904	0.433	0.542	0.585	0.545	0.485	0.172	0.194	0.189	0.196	0.868
SW 1573	1.05	1.16	1	1.09	0.869	0.97	0.767	0.317	0.345	0.477	0.406	0.423	0.28	0.221	0.225	0.205	0.879
UMC-11	0.994	0.987	0.978	1.07	0.821	0.579	0.578	0.29	0.312	0.316	0.337	0.362	1.17	1.24	1.19	1.03	0.633
